# Test results: PMC8776894 (Communications Biology, 2022)
# Values joined by “and” are separate entries in the source; they are usually repeats but may differ in a detail not shown here. Equal values may be shown once.
# Key:
# [1] = system: MCAO/R mice; experiment: Evans blue extravasation, BBB permeability; type: in vivo, mouse; parameters: EB content in damaged (right) hemisphere (Fig.4): unit not given here; details: for EB content in damaged (right) hemisphere (Fig.4): individual animals
# Procedure: Fig. 4 Protective effect of VK on the blood–brain barrier (BBB) in stroke mice. a Experimental design: in addition to the sham group, mice (8–10 weeks, male) were subjected to MCAO for 60 min. Mice were randomized into four groups: sham group, vehicle group, and VK (150 and 300 µg/kg) groups. Mice were administered VK at 0, 4, 22.5, and 46.5 h after MCAO/R and BBB integrity was assessed by Evans blue (EB) and transmission electron microscope (TEM). b Brain samples were stained with EB. c EB content in damaged (right) hemisphere was quantized. d Schematic of BBB. The BBB mainly consists of endothelial cells (EC), pericytes (PC), astrocytes (Ast), neurons, tight junctions (TJs), and the basement membranes (BM). The main components of the BBB are cerebral microvascular ECs joined by TJs, thus restricting exogenous molecules into the brain. e The structure of the BBB was observed by TEM. In the sham group (e1–3), the capillary morphology was regular, the EC and TJ were complete, the thickness of the BM was uniform and continuous around the outside of EC, and the structure of mitochondria (Mt) was clear. […] The marks with different symbols indicate the constituent cells or matrix of the BBB. Scale bars: 2 µm. Data are expressed as the mean ± SD, n = 5. Values were analyzed using one-way analysis of variance (ANOVA) with the Tukey multiple comparisons test.
# [2] = system: 17 phosphorylation sites, prefrontal cortex lysate; experiment: Phospho antibody microarray; type: in vivo, mouse
# Procedure: Protein phosphorylation detection was performed with a Phospho Explorer Antibody Array (Catalog number AAM-APOSIG-1-8, Ray Biotech, USA), allowing for the examination of 17 phosphorylation sites (three replicates per antibody). Whole-cell lysates from the prefrontal cortex in mice after MCAO/R and VK-treated, and the assay was performed according to the manufacturer’s protocol.
# [3] = Group2(VK 150) VS Group1(VK 300)
# [4] = Group2(VK 150) VS Group3(Sham), AveExp.Group3 minus AveExp.Group2
# [5] = Group4(Vehicle) VS Group1(VK 300)
# [6] = Group4(Vehicle) VS Group2(VK 150)
# [7] = Vehicle vs VK headed 150 mg/kg, Regulation up
# [8] = Vehicle vs VK headed 300mg/kg, Regulation up
substance,measurement,setting,value
"Gly-Arg-Pro-Hyp-Gly-Phe-Ser-Pro-Phe-Arg-Ile-Asp [VK, Vespakinin-M]",EB content in damaged (right) hemisphere (Fig.4),[1]; VK 150 µg/kg i.p.,0.6116 and 3.907 and 2.036 and 0.849 and 0.3932
same,EB content in damaged (right) hemisphere (Fig.4),[1]; VK 300 µg/kg i.p.,0.754 and 0.4027 and 0.5261 and 1.381 and 3.67
same,"BBB permeability, EB extravasation",[1]; VK 150 and 300 µg/kg,reversed the effect of MCAO-induced on BBB permeability
same,AKT(S473) logFC,[2]; [3],0.1681
same,ATM(S1981) logFC,[2]; [3],0.4433
same,BAD(S112) logFC,[2]; [3],0.1628
same,CHK1 (S296) logFC,[2]; [3],0.118
same,Casp3(D175) logFC,[2]; [3],0.2616
same,Casp7(D198) logFC,[2]; [3],0.356
same,Erk1/2(T202) logFC,[2]; [3],0.2636
same,IkBa (S32) logFC,[2]; [3],-0.1062
same,JNK(T183) logFC,[2]; [3],0.1152
same,NFKB(S536) logFC,[2]; [3],0.07606
same,P27(T198) logFC,[2]; [3],-0.02206
same,P38(T180/Y182) logFC,[2]; [3],0.08158
same,P53(S15) logFC,[2]; [3],-0.02082
same,SMAD2(S245) logFC,[2]; [3],0.2566
same,TAK1(S412) logFC,[2]; [3],0.04657
same,eIF2a (S51) logFC,[2]; [3],0.3172
same,hsp27(S82) logFC,[2]; [3],0.2446
same,AKT(S473) logFC,[2]; [4],0.1633
same,ATM(S1981) logFC,[2]; [4],0.1496
same,BAD(S112) logFC,[2]; [4],0.121
same,CHK1 (S296) logFC,[2]; [4],0.2057
same,Casp3(D175) logFC,[2]; [4],0.09625
same,Casp7(D198) logFC,[2]; [4],0.03142
same,Erk1/2(T202) logFC,[2]; [4],0.1043
same,IkBa (S32) logFC,[2]; [4],0.1056
same,JNK(T183) logFC,[2]; [4],0.02185
same,NFKB(S536) logFC,[2]; [4],-0.02812
same,P27(T198) logFC,[2]; [4],0.08521
same,P38(T180/Y182) logFC,[2]; [4],-0.03282
same,P53(S15) logFC,[2]; [4],0.03719
same,SMAD2(S245) logFC,[2]; [4],0.04639
same,TAK1(S412) logFC,[2]; [4],0.09444
same,eIF2a (S51) logFC,[2]; [4],0.1069
same,hsp27(S82) logFC,[2]; [4],0.06748
same,AKT(S473) logFC,[2]; Group3(Sham) VS Group1(VK 300),0.3314
same,ATM(S1981) logFC,[2]; Group3(Sham) VS Group1(VK 300),0.5929
same,BAD(S112) logFC,[2]; Group3(Sham) VS Group1(VK 300),0.2838
same,CHK1 (S296) logFC,[2]; Group3(Sham) VS Group1(VK 300),0.3237
same,Casp3(D175) logFC,[2]; Group3(Sham) VS Group1(VK 300),0.3578
same,Casp7(D198) logFC,[2]; Group3(Sham) VS Group1(VK 300),0.3874
same,Erk1/2(T202) logFC,[2]; Group3(Sham) VS Group1(VK 300),0.3679
same,IkBa (S32) logFC,[2]; Group3(Sham) VS Group1(VK 300),-0.0006282
same,JNK(T183) logFC,[2]; Group3(Sham) VS Group1(VK 300),0.137
same,NFKB(S536) logFC,[2]; Group3(Sham) VS Group1(VK 300),0.04795
same,P27(T198) logFC,[2]; Group3(Sham) VS Group1(VK 300),0.06315
same,P38(T180/Y182) logFC,[2]; Group3(Sham) VS Group1(VK 300),0.04876
same,P53(S15) logFC,[2]; Group3(Sham) VS Group1(VK 300),0.01637
same,SMAD2(S245) logFC,[2]; Group3(Sham) VS Group1(VK 300),0.303
same,TAK1(S412) logFC,[2]; Group3(Sham) VS Group1(VK 300),0.141
same,eIF2a (S51) logFC,[2]; Group3(Sham) VS Group1(VK 300),0.4241
same,hsp27(S82) logFC,[2]; Group3(Sham) VS Group1(VK 300),0.3121
same,CHK1 (S296) logFC,[2]; [5],0.6052
same,Casp7(D198) logFC,[2]; [5],0.6994
same,Erk1/2(T202) logFC,[2]; [5],0.4686
same,IkBa (S32) logFC,[2]; [5],0.671
same,JNK(T183) logFC,[2]; [5],0.4121
same,NFKB(S536) logFC,[2]; [5],0.4222
same,P38(T180/Y182) logFC,[2]; [5],0.4307
same,hsp27(S82) logFC,[2]; [5],0.386
same,logFC AKT(S473),[2]; [5],0.1073
same,logFC ATM(S1981),[2]; [5],0.3928
same,logFC BAD(S112),[2]; [5],0.3454
same,logFC Casp3(D175),[2]; [5],0.3417
same,logFC P27(T198),[2]; [5],0.1337
same,logFC P53(S15),[2]; [5],0.1112
same,logFC SMAD2(S245),[2]; [5],0.1323
same,logFC TAK1(S412),[2]; [5],0.1801
same,logFC eIF2a (S51),[2]; [5],0.3444
same,logFC AKT(S473),[2]; [6],-0.06086
same,logFC ATM(S1981),[2]; [6],-0.05046
same,logFC BAD(S112),[2]; [6],0.1826
same,logFC CHK1 (S296),[2]; [6],0.4872
same,logFC Casp3(D175),[2]; [6],0.08018
same,logFC Casp7(D198),[2]; [6],0.3435
same,logFC Erk1/2(T202),[2]; [6],0.205
same,logFC IkBa (S32),[2]; [6],0.7772
same,logFC JNK(T183),[2]; [6],0.2969
same,logFC NFKB(S536),[2]; [6],0.3462
same,logFC P27(T198),[2]; [6],0.1557
same,logFC P38(T180/Y182),[2]; [6],0.3491
same,logFC P53(S15),[2]; [6],0.132
same,logFC SMAD2(S245),[2]; [6],-0.1242
same,logFC TAK1(S412),[2]; [6],0.1335
same,logFC eIF2a (S51),[2]; [6],0.02722
same,logFC hsp27(S82),[2]; [6],0.1414
same,"levels of IκBa (S32), CHK1 (S296), NF-κB (S536), p38 (T180/Y182), Casp7 (D198), JNK(T183) vs vehicle","[2]; VK 150 µg/kg, MCAO/R mice",clearly decreased levels
same,NFκB(S536) AveExp. Group2,[2]; VK group headed 150 mg/kg,11
same,IκBa (S32) AveExp. Group2,[2]; VK group headed 150 mg/kg (text 150 µg/kg),10.95
same,NFκB(S536) AveExp. Group1,[2]; VK group headed 300mg/kg,10.93
same,IκBa (S32) AveExp. Group1,[2]; VK group headed 300mg/kg (text 300 µg/kg),11.05
same,IκBa (S32) logFC,"[2]; Vehicle (Group4) vs VK headed 150 mg/kg, Regulation up",0.7772
same,IκBa (S32) logFC,"[2]; Vehicle (Group4) vs VK headed 300mg/kg, Regulation up",0.671
same,Casp7(D198) logFC,[2]; [7],0.3435
same,JNK(T183) logFC,[2]; [7],0.2969
same,NFκB(S536) logFC,[2]; [7],0.3462
same,ATM(S1981) logFC,[2]; [8],0.3928
same,BAD(S112) logFC,[2]; [8],0.3454
same,CHK1 (S296) logFC,[2]; [8],0.6052
same,Casp3(D175) logFC,[2]; [8],0.3417
same,Casp7(D198) logFC,[2]; [8],0.6994
same,Erk1/2(T202) logFC,[2]; [8],0.4686
same,JNK(T183) logFC,[2]; [8],0.4121
same,NFκB(S536) logFC,[2]; [8],0.4222
same,P38(T180/Y182) logFC,[2]; [8],0.4307
same,eIF2a (S51) logFC,[2]; [8],0.3444
same,hsp27(S82) logFC,[2]; [8],0.386
